Assay results reported in US6818621B2, “Osteopontin-derived chemotactic and inhibitory agents and uses therefor” (Children's Medical Center Corporation, priority 1999, dated 2004).
Where no end group is shown, it is not given here.

What was measured:
[1] = tested on: MDA-MB-231 cells (CD44+ human breast adenocarcinoma cells); test: Chemotactic chamber (Boyden) assay, migration through polycarbonate filters; type: cell-based; settings: for MI buffer / MI: Table 4; for MI buffer: cells migrating in response to peptide divided by cells migrating in response to buffer; for Migratory Index: Table 3, cells migrating in response to peptide/cells migration in response to LVLDPK; for mean number of migrating cells per six random high powered fields: Table 2; for MI: migratory index
Description: Each peak was then tested for mediation of chemotaxis or for its ability to inhibit OPN mediated chemotaxis using the chemotactic assay as follows (see e.g., Weber et al. (1996) Science 271:509-512). Briefly, uncoated polycarbonated filters (pore size […] ) were used to separate the upper and lower chambers of chemotactic wells. 1×10^3 MDA-MB-231 cells (CD44^+human breast adenocarcinoma cells) were added to the upper chamber and incubated in the presence or absence of the indicated 50 pmols peptide. After 4 hours, the filters were removed, fixed in methanol arid stained with hematoxylin and eosin. Cells which have responded to the peptide, migrate to various areas of the lower surface and can be counted microscopically. Each data point is reported as the mean number of migrating cells per random high power field.
Peptide 51 was identified as being chemotactic. The peptide was sequenced using a gas-phase sequenator and determined to have the sequence LVLDPK (SEQ ID NO:1). To confirm that chemotaxis was due to this peptide, a 16 amino acid peptide spanning the chemotactic sequence in OPN was synthesized and tested for its chemotactic properties. The resulting peptide, SP64 has the sequence KFHSHKDKLVLDPKSK (SEQ ID NO:2) and containing the chemotactic sequence from residues 9-14. 2×10^4 MDA-MB-231 cells were assayed for chemotactic response to the indicated peptides as described above. Each data point is reported as the mean number of migrating cells per six random high powered fields ± standard error of the mean. Each experiment was repeated four times.
To test the amino acid specificity for chemotactic response several substitutions were created in the chemotactic sequence and the new peptides tested for their ability to induce chemotaxis. Data are expressed as migratory index (cells migrating in response to peptide/cells migration in response to LVLDPK, SEQ ID NO:1).
(§1) To evaluate the potential of peptide analogues to inhibit OPN induced chemotaxis, 100 nmoles of peptide was added to the lower compartment and the response of these cells to OPN was determined as described. MI(buffer) was calculated by dividing the number of cells migrating in response to peptide by the number of cells migrating in response to buffer. MI(inhibitory) equals the number of cells migrating towards OPN in the presence of buffer divided by the number migrating towards OPN in the presence of peptide.

[2] = tested on: MDA-MB-231 cells; test: Inhibition of OPN induced chemotaxis in the chemotactic chamber assay; type: cell-based, human; settings: for MI inhibitory: Table 4, 100 nmoles of peptide, cells migrating towards OPN in presence of buffer divided by number migrating towards OPN in presence of peptide
Description: as §1

[3] = tested on: cells recruited into the peritoneum; test: In vivo chemotaxis after injection of peptide into the peritoneal cavity, lavage and flow cytometry; design: species or system C57 black mice; settings: 25 nmols i.p., 6 hours, normalized to PBS-injected mouse, average of 6 mice
Description: Since the peptide LVLDPK (SEQ ID NO:1) was chemotactic to tumor cells and macrophages in vitro, we tested whether the peptide was chemotactic in vivo. 25 nmols of the peptide were injected into the peritoneal cavity of C57 black mice. After six hours the cells recruited into the peritoneum were recovered by lavage and identified by flow cytometry. Titration of soluble peptides into the peritoneum induces a cellular infiltrate in a dose dependent manner. The induction ratio is the number of cells of a particular lineage recovered from the peritoneum of a peptide-injected mouse (e.g., 6 hours after injection) normalized for each experiment to the number of cells of the same lineage recovered from the peritoneum of a PBS-injected mouse. Cell numbers for PBS-injected mice ranged from […] to 646,000 cells total; 182,300 to 325,000 CD44^+ cells; 224,000 to 496,000 […] cells; 31,300 to 76,000 B220^+ cells; 18,100 to 21,100 CD3^+ cells), representing the induction of macrophages (Mac-1^+), B cells (B220^+), and T cells (CD3^+). Values represent an average of 6 mice.

| Substance | MI buffer [1] | MI inhibitory [2] | Migratory Index [1] | MI [1] | other results |
| --- | --- | --- | --- | --- | --- |
| Acetyl-LVLDP (Ac-LVLDP) [pepK″] | 1 | 4 | – | – | – |
| ILVDPK (OTHER INFORMATION: Description of Artificial Sequence:Synthetic Peptide) | – | – | – | – | chemotactic activity (in words) [1]: chemotactic activity |
| ILVVDPK (OTHER INFORMATION: Description of Artificial Sequence:Synthetic Peptide) [pepK′] | – | – | 1.0 | – | – |
| KFHSHKDKLVLDPKSK (OTHER INFORMATION: Description of Artificial Sequence:Synthetic Peptide) [SP64] | 12 | 9 | 1 | 1 | mean number of migrating cells per six random high powered fields ([1]; labelled agent in lower chamber, Ab64 in upper chamber): 25 cells per six random high powered fields; mean number of migrating cells per six random high powered fields ([1]; labelled agent in lower chamber, OPN in upper chamber): 66 cells per six random high powered fields; mean number of migrating cells per six random high powered fields ([1]; labelled agent in lower chamber, PBS in upper chamber, 2×10^4 cells): 217 cells per six random high powered fields; mean number of migrating cells per six random high powered fields ([1]; labelled agent in lower chamber, SP64 in upper chamber): 66 cells per six random high powered fields; mean number of migrating cells per six random high powered fields ([1]; labelled agent in lower chamber, pep 51 in upper chamber): 97 cells per six random high powered fields; mean number of migrating cells per six random high powered fields ([1]; labelled agent in upper chamber, PBS in lower chamber): 243 cells per six random high powered fields; chemotactic response of MDA-MB231 (in words) ([1]; p<0.01, 200 ng of bone OPN): stimulated the chemotactic response |
| LELDPK (OTHER INFORMATION: Description of Artificial Sequence:Synthetic Peptide) [pepH] | 2 | 10 | 0.3 | 0.3 | – |
| LLVDPK (OTHER INFORMATION: Description of Artificial Sequence:Synthetic Peptide) | – | – | – | – | chemotactic activity (in words) [1]: chemotactic activity |
| LVIDPK (OTHER INFORMATION: Description of Artificial Sequence:Synthetic Peptide) [pepD] | 11 | 9 | 1 | 1 | – |
| LVLAPK (OTHER INFORMATION: Description of Artificial Sequence:Synthetic Peptide) [pepI] | 1 | 9 | 0.1 | 0.1 | – |
| LVLDEK (OTHER INFORMATION: Description of Artificial Sequence:Synthetic Peptide) [pepE] | 2 | 10 | 0.2 | 0.2 | – |
| LVLDP (OTHER INFORMATION: Description of Artificial Sequence:Synthetic Peptide) [pepG] | 0 | 4 | 0.1 | 0.1 | inhibition of chemotaxis by peptide (in words) ([2]; migratory index against peptide 51): inhibits chemotaxis |
| LVLDPA (OTHER INFORMATION: Description of Artificial Sequence:Synthetic Peptide) [pepK] | – | – | 0.1 | – | – |
| LVLEPK (OTHER INFORMATION: Description of Artificial Sequence:Synthetic Peptide) [pepJ] | 6 | 9 | 0.6 | 0.6 | – |
| LVLVPK (OTHER INFORMATION: Description of Artificial Sequence:Synthetic Peptide) [pepA] | – | – | 0.2 | – | induction ratio, Total [3]: 1.3; induction ratio, Total CD44 [3]: 1.8; induction ratio, B-lymphocytes ([3]; B220+): 1; induction ratio, T-lymphocytes ([3]; CD3+): 1.1; induction ratio, Monocytes ([3]; Mac-1+): 1.2 |
| LVPDPK (OTHER INFORMATION: Description of Artificial Sequence:Synthetic Peptide) [pepB] | 10 | 8 | 1 | 1 | – |
| LVPDSK (OTHER INFORMATION: Description of Artificial Sequence:Synthetic Peptide) [pepC] | 7 | 10 | 1 | 1 | – |
| VDPK (OTHER INFORMATION: Description of Artificial Sequence:Synthetic Peptide) | – | – | – | – | chemotactic activity (in words) [1]: retain chemotactic activity |
| VLDSK (OTHER INFORMATION: Description of Artificial Sequence:Synthetic Peptide) | – | – | – | – | chemotactic activity (in words) [1]: retain chemotactic activity |
| VVLDPK (OTHER INFORMATION: Description of Artificial Sequence:Synthetic Peptide) | – | – | – | – | chemotactic activity (in words) [1]: chemotactic activity |
